Source: a melting point compilation (Tetko et al.; mined from patent text by program, amines drawn as free bases though some values may be those of a salt)

melting point [°C]	Structure (SMILES)
63 to 66	Cc1cc(S(N)(=O)=O)n(C)n1
143 to 147	CC(=O)N(C(C)=O)c1c(Cl)c(C)nn1C(CCN1C(=O)c2ccccc2C1=O)=NOS(=O)(=O)c1ccc(C)cc1
160 to 161	CC(C)Oc1cc(-n2nc(C(F)(F)F)[nH]c2=O)c(Cl)cc1Cl
178 to 180	CN(C)C(=O)CCC(NC(=O)C=Cc1ccco1)C(=O)N(C)C (configuration not stated)
76 to 78	COC(=O)c1cc(N)cs1
55 to 60	CC1=C(C(=O)N(C)Cc2ccc(Cl)cc2Cl)SC2=NCCN21
178 to 180	CCCCC(=O)NCCc1ccc(S(=O)(=O)NC(=O)c2ccc(C(=O)OC)nc2)cc1
154 to 156	Cc1cc(C)cc(Nn2cnc(C)c2-c2ccccc2)c1
103 to 105	CSCCOc1c(-c2ccc(S(C)(=O)=O)cc2)cnn(CC(F)(F)F)c1=O
140 to 142	CCCc1nn(C)c2c(=O)n(CCCOc3ccc(SC(C)(C)C(=O)O)cc3)c(C)nc12
102 to 104	CCOC(=O)c1cc2n(c1)CN(CCC#N)c1ccccc1-2
237 to 238	Cc1cc(C(N)=O)ncc1C(c1c(F)ccc(F)c1F)S(=O)(=O)c1ccc(C(F)(F)F)nc1 (configuration not stated)
190 to 193	Cc1ccc(NC(=O)N[C@]2(C3CCCCC3)N=Cc3ccccc3N(C)C2=O)cc1Nc1nnn[nH]1
156 to 157	Cc1csc2nc(CO)cn12
132 to 133	CC1(C)CC(S(=O)(=O)Cc2c(C(F)(F)F)nn(-c3ccccc3)c2Cl)=NO1
245 to 250	CC(C)(C)C1C(O)=C(C2=NS(=O)(=O)c3c(NS(C)(=O)=O)cccc32)C(=O)N1Cc1ccc(F)cc1 (configuration not stated)
148 to 150	CCOC(=O)c1cc(-c2ccc(F)cc2)[nH]n1

melting point [°C]	Structure (SMILES)
97 to 100	O=Cc1ccc(Br)cc1C=O
132 to 134	COc1ccc(-c2nc(C#N)cn2-c2ccc(OC)cc2)cc1
101 to 102	CCOC(=O)c1ccc(-c2nc(CCl)c(C)o2)s1
123 to 125	COc1cc([N+](=O)[O-])ccc1-c1sc(C)nc1C
241 to 243	COc1cc2nc(N)nc(-c3ccccc3Br)c2cc1OC
148 to 151	CCOC(=O)c1c(C)[nH]c(Sc2cc(Cl)cc(Cl)c2)c1C(C)C
147 to 149	CCOC(=O)c1c(Nc2cc(F)ccc2[N+](=O)[O-])sc2cc(C)ccc12
266 to 268	COc1cc(C=C2NC(=O)NC2=O)cc(OC)c1OC
144 to 146	NC1CCCn2c1nc(-c1ccncc1)cc2=O (racemic)
110 to 112	CC(=O)S[C@@H](CCN1C(=O)CCC1=O)C(=O)O
198 to 205	CC(=O)C(=Cc1cc(O)c(O)c(C(F)(F)F)c1)C(C)=O
123 to 125	Cc1cc2c(c(C)c1O)C(C)CN2C(=O)C(C)C (configuration not stated)
64 to 66	COC(=O)c1cc(S(C)=O)ccc1OC (configuration not stated)
71 to 72	COc1ccc(N)c(C(=O)O)c1OC
204	CCn1c(N)c(C(=O)NC)c(=O)c2ccc(C#CC(C)(C)OCC(N)=O)nc21
113 to 115	CSC(=N)NS(=O)(=O)c1c(Cl)sc(Cl)c1Br
189	CCOC(=O)C(O)=CC=C(C#N)c1ccccc1

The remaining lines, values behind:

Structure (SMILES)	melting point [°C]
O=C1c2ccccc2C(=O)N1C(O)C1OC(n2ccc(=O)[nH]c2=O)CC1O (configuration not stated)	241 to 242
O=Cc1cccnc1SCc1ccccc1	71.5 to 73
CCCn1nc(C(C)C)c(C(=O)OCOC(=O)C(C)(C)C)c1Cc1ccc(-c2ccccc2-c2nnn[nH]2)cc1	62 to 67
CCOCCOc1cc(C(C)C)c(NC(=O)CN2CCN(CCSc3nc4ccccc4o3)CC2)c(C(C)C)c1	92 to 95
O=C(Cc1c[nH]c2ccccc12)Nc1cc2c(cn1)[nH]c1ccccc12	252 to 254
N#Cc1sc(N2CCCC2)nc1N	305 to 308
NCC1Cc2cc(Cl)cc(-c3cc(Cl)ccc3Cl)c2O1 (configuration not stated)	160 to 162
O=C(O)Cc1c(C(=O)c2ccc3c(c2)CCO3)[nH]c2cc(Cl)ccc12	217
CN1c2ccc(-c3ccc4ccccc4c3)cc2S(=O)(=O)c2cc(-c3ccc4ccccc4c3)ccc21	328 to 332
COc1cc(C(=O)N2CC2C#N)cc(OC)c1OC (configuration not stated)	86 to 89
COC(=O)C(=O)C(CCCc1ccccc1)CS(=O)(=O)c1ccc(OC)cc1 (configuration not stated)	95
COc1ccc(-c2ccc3c(C(=O)c4ccn5c4CSC5c4cccnc4)c[nH]c3c2)cc1 (configuration not stated)	246 to 248
CCOC(=O)C1=C(CSSc2ccccc2)NC(C)=C(C(=O)OC)C1c1cccc([N+](=O)[O-])c1 (configuration not stated)	132 to 133
COc1cc2ncnc(N3CCC(C(C)CN4C(C)=CC(C)=NS4(=O)=O)CC3)c2cc1OC (configuration not stated)	169 to 172
O=C1Nc2cccnc2N(C(=O)N2CCCC(CCN3CCCC3)C2)c2cc(Cl)ccc21 (configuration not stated)	136 to 139
NC(=O)Cc1ccc2c(c1)CCc1cccnc1O2	164 to 165
CCCCC[C@@H](CNC(=O)Nc1c(N2CCCC2)ncnc1N1CCCC1)c1cccc2c1OCO2	199 to 200
COc1ccc(C(O)(Cc2ccncc2)c2cccs2)cc1OC1CCCC1 (configuration not stated)	57 to 67
O=C(OCC1CC1)c1ncn2c1C1C=CCN1C(=O)c1c(Cl)cccc1-2 (configuration not stated)	189 to 190
CS(=O)(=O)c1ccc(-c2cnn(Cc3ccccc3)c(=O)c2-c2ccc(Cl)cc2)cc1	157 to 159
C[N+](C)([O-])S(=O)(=O)c1ccc2c(c1)N(C1CN3CCC1CC3)c1ccccc1S2=O (configuration not stated)	130
COC(=O)CCc1conc1-c1ccc(F)c(Cl)c1	39 to 40
O=C(Cc1c2c(nn1-c1ccccc1)c(=O)[nH]c1ccccc12)N1CCN(Cc2ccccc2)CC1	283 to 285

Structure (SMILES)	melting point [°C]
Cc1cc(OCc2ccc(-c3ccccc3C(=O)O)cc2)c2ncccc2n1	213 to 214
Cc1ccccc1Cn1c(=O)c2c(N3CCN(C)CC3)cc(Cl)cc2n(Cc2ccccc2)c1=O	92 to 95
COC(=O)C1CCc2nc(N)sc2C1 (configuration not stated)	148 to 168
O=C(Cn1ccnc1)C12CC3CC(CC(C3)C1)C2	130
O=[N+]([O-])c1cn2c(n1)OC[C@@H](OCc1ccc(Br)cn1)C2	171 to 173
O=C(NCCSCc1cccc(F)c1)c1c(F)cccc1F	39 to 41
CC(C)NCC(O)COc1cccc2c1CC(=O)N2 (configuration not stated)	173 to 175
CC1(C)CNC(=Nc2ccccc2)S1	153 to 155
c1cc(-c2cnn3cc(-c4ccc(OCCN5CCCCC5)cc4)cnc23)cs1	141 to 143
COc1ccc(C2=CC(=O)CC2)cc1OC1CCCC1	136 to 137
Cc1cc(NC(=O)NN(c2ccccc2)c2cccc(CN)c2)ccc1N1CCCCC1=O	172 to 173
CCCc1nc(C=O)c(Cl)c(N)c1F	89 to 91
CC(=O)OC1CSC(Oc2cccnc2Cl)C(OC(C)=O)C1OC(C)=O (configuration not stated)	160
C=Cc1ccc(CSC(CC(=O)O)C(=O)O)cc1 (configuration not stated)	173 to 175
CN1CCN(CCCNC(=O)CN2CCCC2=O)CC1	93
COc1cc2c(N3CCN(C(=O)Nc4ccc(Oc5ccccc5)cc4)CC3)ncnc2cc1OC(C)C	157 to 160
CC(C)(CCCCCC(=O)CCCCCC(C)(C)C(=O)O)C(=O)O	74.5 to 76
CCOC(=O)CCCOc1ccc(C(=O)Nc2ccccc2Sc2ccccc2-c2nnn[nH]2)cc1	173 to 175
COC(=O)C1CCN(Cc2ccc(-c3ccc4c(Nc5ccc(Sc6nccn6C)c(Cl)c5)c(C#N)cnc4c3)nc2)CC1	135 to 137
COCC(=O)Nc1cccc(C2(C3CCN(C(=O)c4ccc(O)cc4)CC3)N=C(N)N(C)C2=O)c1 (configuration not stated)	184 to 187
CN1CCN(Cc2nc3ccccc3[nH]2)CC1	179 to 183
C=C1N(C(C)(C)C)C(=O)OC12CCN(C(=O)CC)CC2	104 to 105
CC(C)C(C)CCC(C)C1CCC2C3CCC4CC(OC(=O)c5ccccc5)CCC4(C)C3CCC12C (configuration not stated)	232 to 234

Structure (SMILES)	melting point [°C]
COc1cc2c(cc1OC)C(=O)C(c1ccc(F)cc1)C2 (configuration not stated)	189 to 191
O=C(O)Cc1ccc(CCCSc2ccc(Cl)cc2)cc1	94 to 96
CN1CCC(Oc2ccc3ccccc3n2)(c2ccccc2)CC1	80 to 81
C/C(=C\C=O)c1ccc(OCc2nc(-c3ccccc3)oc2C)cc1	94 to 95
CC(C)C(Br)=C(c1ccccc1)c1ccccc1	112 to 114
CCc1ccc(-c2onc3ccccc23)cc1	42 to 42.5
N#Cc1c(Cl)c2cccnc2n(Cc2ccccc2)c1=O	188
Cc1ccc2c(c1C)N(c1ncnc3cnccc13)CC2	248
COc1cc(Cc2cnc(N)nc2N)cc(OC)c1C(C)(C)O	183 to 185
CCOc1ccc(-c2nc(-c3ccc(OCC(=O)OC)c(C(=O)OC)c3)cs2)cc1OCC	96 to 97
CC(C)(C)OC(=O)C(NN)C(=O)O (configuration not stated)	144 to 146
COc1ccc(-c2ccnc(Nc3cc(OC)c(OC)c(OC)c3)n2)cc1	148 to 150
O=C(O)c1cc(N2C(=O)C3=C(CCCC3)C2=O)ccc1O	240
O=C(N[C@H]1CC[C@H](CCN2CCN(c3nccc4c3CCO4)CC2)CC1)c1ccc(-c2ccccc2)cc1	232
Nc1cc(C(O)=S)cc(Cc2ccccc2)c1C(=O)c1ccccc1	141 to 142
CC#CCOc1ccc(SC(C(=O)NO)c2ccc3ccccc3c2)cc1 (configuration not stated)	148
Cc1c(-c2ccccc2)oc2c(CC(=O)O)cccc2c1=O	191 to 192
O=C(O)c1ccc(C2(F)CC2c2ccc(Cl)cc2)cc1 (configuration not stated)	204
CCSCCOC(=O)C(=O)Nc1nc(-c2ccccc2)cs1	148 to 149
CCC(C(=O)c1ccc(OCc2ccccc2)cc1)c1ccccc1 (configuration not stated)	71
O=C1c2ccccc2C(c2c(O)c3ccccc3oc2=O)N1c1ccccc1 (configuration not stated)	335 to 337
CC(C)(C)c1ccc(-c2cc(=O)cc(N3CCOCC3)s2)cc1	172 to 173
